Assay results as given in ChEMBL document CHEMBL1201862, “PubChem BioAssay data set” (2004).
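Exposure lasted 48 hours, with cells grown in 96-well plates and compounds tested at five concentrations. Abbreviation: GI50, concentration required for 50% inhibition of growth.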 Active and inactive are the calls of the source. Rule as the data show it: active = GI50 up to about 1.1 µM and inactive = higher.

Columns and labels:
Experiment in all cases: growth of human tumour cells (NCI), 48 h
MDA-N = test system: MDA-N
HT-29 = test system: HT-29
T47D = test system: T47D
NCI-H460 = test system: NCI-H460
DU-145 = test system: DU-145
BT-549 = test system: BT-549
UACC-257 = test system: UACC-257
MDA-MB-435 = test system: MDA-MB-435
RPMI-8226 = test system: RPMI-8226
HOP-62 = test system: HOP-62
PC-3 = test system: PC-3
SF-268 = test system: SF-268
NCI/ADR-RES = test system: NCI/ADR-RES
A498 = test system: A498
NCI-H522 = test system: NCI-H522

| SMILES | GI50 (MDA-N) | GI50 (HT-29) | GI50 (T47D) | GI50 (NCI-H460) | GI50 (DU-145) | GI50 (BT-549) | GI50 (UACC-257) | GI50 (MDA-MB-435) | GI50 (RPMI-8226) | GI50 (HOP-62) | GI50 (PC-3) | GI50 (SF-268) | GI50 (NCI/ADR-RES) | GI50 (A498) | GI50 (NCI-H522) |
| --- | --- | --- | --- | --- | --- | --- | --- | --- | --- | --- | --- | --- | --- | --- | --- |
| Cc1ccnn1CCc1ccc(Cl)cc1Cl | 44.3 µM (inactive) | 36.8 µM (inactive) | 8.97 µM (inactive) | 27.2 µM (inactive) | 37.4 µM (inactive) | 13.6 µM (inactive) | 34.4 µM (inactive) | 38.2 µM (inactive) | 8.73 µM (inactive) | 15 µM (inactive) | 27 µM (inactive) | 27 µM (inactive) | 6.82 µM (inactive) |  |  |
| CN(C)N1C(=O)S/C(=C\c2ccc([N+](=O)[O-])cc2)C1=O | > 100 µM (inactive) | > 100 µM (inactive) | 65.5 µM (inactive) | > 100 µM (inactive) | > 100 µM (inactive) |  | > 100 µM (inactive) | > 100 µM (inactive) |  | > 100 µM (inactive) | > 100 µM (inactive) | > 100 µM (inactive) | > 100 µM (inactive) | > 100 µM (inactive) | > 100 µM (inactive) |
| CCOP(=O)(OCC)C(Nc1ccc(C(=O)O)cc1)c1ccc(C(Nc2ccc(C(=O)O)cc2)P(=O)(OCC)OCC)cc1 (stereo not given) |  | > 100 µM (inactive) | > 100 µM (inactive) | > 100 µM (inactive) | > 100 µM (inactive) | > 100 µM (inactive) | > 100 µM (inactive) | > 100 µM (inactive) | > 100 µM (inactive) | > 100 µM (inactive) | > 100 µM (inactive) | > 100 µM (inactive) | > 100 µM (inactive) | > 100 µM (inactive) | > 100 µM (inactive) |
| N#Cc1c(-c2ccc([N+](=O)[O-])cc2)c(C#N)c(=O)n(NS(=O)(=O)c2ccccc2)c1O | > 100 µM (inactive) | > 100 µM (inactive) |  | > 100 µM (inactive) |  | > 100 µM (inactive) | > 100 µM (inactive) | > 100 µM (inactive) | > 100 µM (inactive) | > 100 µM (inactive) | > 100 µM (inactive) |  | > 100 µM (inactive) | > 100 µM (inactive) | > 100 µM (inactive) |
| O=C1Nc2ccccc2C(=O)/C1=C/NC(=S)NCCc1ccccc1 | > 100 µM (inactive) | > 100 µM (inactive) | > 100 µM (inactive) | > 100 µM (inactive) | > 100 µM (inactive) | > 100 µM (inactive) | > 100 µM (inactive) | > 100 µM (inactive) |  | > 100 µM (inactive) | 98.4 µM (inactive) |  | > 100 µM (inactive) |  |  |
| O=c1cc(N2CCCC2)[nH]c(=O)n1-c1ccccc1 |  | > 100 µM (inactive) |  | > 100 µM (inactive) | > 100 µM (inactive) | > 100 µM (inactive) | > 100 µM (inactive) | > 100 µM (inactive) | > 100 µM (inactive) | > 100 µM (inactive) | > 100 µM (inactive) | > 10 µM (inactive) | > 100 µM (inactive) |  | > 100 µM (inactive) |
| COc1cc(OC2OC(CO)C(O)C(O)C2O)c2c(O)c3c(=O)cc(C)oc3cc2c1 (stereo not given) | > 10 µM (inactive) | > 100 µM (inactive) | > 100 µM (inactive) | > 100 µM (inactive) | > 100 µM (inactive) | 29.5 µM (inactive) | > 100 µM (inactive) | > 100 µM (inactive) | > 100 µM (inactive) | > 100 µM (inactive) | > 100 µM (inactive) | 64.3 µM (inactive) |  | > 100 µM (inactive) | > 100 µM (inactive) |
| O=C1C(N2CCNCC2)=C(Cl)C(=O)c2ncccc21 | 4.47 µM (inactive) | > 10 µM (inactive) | > 10 µM (inactive) | > 10 µM (inactive) | 6.79 µM (inactive) | > 10 µM (inactive) | > 10 µM (inactive) | 4.6 µM (inactive) | 3.37 µM (inactive) | > 10 µM (inactive) | > 10 µM (inactive) | > 10 µM (inactive) |  |  |  |
| Oc1cn(-c2ccc(Cl)cc2)nc1-c1nnc(-c2ccccc2)o1 |  | 2.83 µM (inactive) | 3.86 µM (inactive) | 0.236 µM (active) | 2.99 µM (inactive) |  | 1.63 µM (inactive) | 0.152 µM (active) | 0.728 µM (active) | 0.132 µM (active) | 1.43 µM (inactive) | 0.34 µM (active) | 0.215 µM (active) | 9.4 µM (inactive) | 1.1 µM (active) |
| CCOC(=O)c1sc2nc(SC)nc3c2c1NC(=O)CN3c1cccc(F)c1 | 29.8 µM (inactive) | 32.6 µM (inactive) |  | 26.4 µM (inactive) | 26.7 µM (inactive) | 7.29 µM (inactive) | 63.5 µM (inactive) | 27.5 µM (inactive) | 9.12 µM (inactive) | 14.5 µM (inactive) | 17.3 µM (inactive) | 12.4 µM (inactive) |  | 18.2 µM (inactive) | 26.5 µM (inactive) |
| CCOC(=O)c1csc(NC(=O)C(C)N2CCCCC2)n1 (stereo not given) | > 100 µM (inactive) | > 100 µM (inactive) | > 100 µM (inactive) | > 100 µM (inactive) | > 100 µM (inactive) |  | > 100 µM (inactive) | > 100 µM (inactive) | > 100 µM (inactive) | > 100 µM (inactive) | > 100 µM (inactive) |  | > 100 µM (inactive) | > 100 µM (inactive) |  |
| O=C(C1C(c2ccccc2)N1C(c1ccccc1)c1ccccc1)C1C(c2ccccc2)N1C(c1ccccc1)c1ccccc1 (stereo not given) | 28.9 µM (inactive) | 13.6 µM (inactive) | 28.4 µM (inactive) | 15.5 µM (inactive) |  |  | 18.5 µM (inactive) | 36.4 µM (inactive) | 3.59 µM (inactive) | > 100 µM (inactive) | 23.9 µM (inactive) | 24.7 µM (inactive) | 27.4 µM (inactive) |  | 5.71 µM (inactive) |
| O=c1c2ccccc2ncn1COCc1ccccc1 |  | > 100 µM (inactive) |  |  | > 100 µM (inactive) |  | > 100 µM (inactive) | > 100 µM (inactive) |  |  |  |  | > 100 µM (inactive) | > 100 µM (inactive) |  |
| Cc1ccc2c(O)cc(-c3sccc3C)nc2n1 | 0.106 µM (active) | 1.33 µM (inactive) |  | 0.44 µM (active) | 2.62 µM (inactive) | 4.27 µM (inactive) |  | 0.131 µM (active) | 0.444 µM (active) | 2.1 µM (inactive) | 0.426 µM (active) | 1.86 µM (inactive) | 0.326 µM (active) | 0.562 µM (active) | 0.296 µM (active) |
| O=C1Cc2c([nH]c3cc(Br)ccc23)-c2ccccc2N1 | 30.1 µM (inactive) | 13.9 µM (inactive) | 10.9 µM (inactive) | 15.5 µM (inactive) | 21.4 µM (inactive) | 17.2 µM (inactive) |  | 26.5 µM (inactive) |  | 11.7 µM (inactive) | 3.56 µM (inactive) | 25.2 µM (inactive) |  | 21.5 µM (inactive) | 15 µM (inactive) |
| C=C[C@@](C)(/C=C/c1ccc(O)cc1)CCC=C(C)C [BAKUCHIOL] | 17.3 µM (inactive) | 16.5 µM (inactive) | 14 µM (inactive) | 15.6 µM (inactive) | 13.2 µM (inactive) |  | 17.7 µM (inactive) | 18.2 µM (inactive) | 14.9 µM (inactive) | 19.1 µM (inactive) | 16.8 µM (inactive) |  | 16.2 µM (inactive) | 21.2 µM (inactive) | 17.1 µM (inactive) |
